Patent publication US20230159931A1, “TARGETING THE PALMOTYLATION/DEPALMOTYLATION CYCLE TO TREAT INFLAMMATORY DISEASES” (CORNELL UNIVERSITY, priority 2020, published 2023)

Assays:
[1] = test system: STAT3 target genes (RORC and CCND1); assay: Expression of STAT3 target genes under TH17 differentiation conditions (qPCR); format: cell-based; conditions: mouse spleen cells
Method: Splenocytes were isolated from mice by classic methods. In brief, the excised spleen was sliced into small pieces and placed onto a strainer (352350, Thermo Fisher) attached to a 50 ml conical tube. The sliced spleen was pressed through the strainer using the plunger end of a syringe and the cells were washed through the strainer with excess 4° C. PBS. The cell suspension was centrifuged at 500 g for 5 min at 4° C. The cell pellet was suspended in 2 ml of red blood cell lysing buffer (R7757, Sigma) for 5 min at RT and diluted with 30 ml PBS. The cells were centrifuged at 500 g for 5 min at RT. The cell pellet was suspended in 20 ml of 37° C. DMEM media, mixed well with 10 ml of Percoll density gradient media (17089102, VWR) and centrifuged at 2,500 g for 5 min at RT. The collected cells were seeded in 37° C. RPMI 1640 medium (12633012, Gibco) supplemented with 10% FBS at 5×10^6 cells per ml. Splenocytes were cultured under TH17-polarizing conditions: 3 ng ml^−1 TGF-β (100-21, PeproTech), 40 ng ml^−1 IL-6 (200-06, PeproTech), 30 ng ml^−1 IL-23 (200-23, PeproTech), 20 ng ml^−1 tumour necrosis factor (TNF) (300-01A, PeproTech) and 10 ng ml^−1 IL-1β (200-01B, PeproTech). […]
Because STAT3 is important for TH17 cell differentiation, the inventors evaluated whether the palmitoylation-depalmitoylation cycle of STAT3 promotes the generation of TH17 cells from mouse spleen cells. […]

[2] = test system: SMAD2 S-palmitoylation; assay: SMAD2 S-palmitoylation in HEK293T cells treated with APT inhibitors (Alk14, in-gel fluorescence); format: cell-based, human; conditions: 10 μM APT inhibitors for 24 hours; HEK293T cells with HA-DHHC7 and Flag-SMAD2
Excerpt: FIGS. 7A-7G. APT2 is the depalmitylase of SMAD2 and C-terminal phosphorylation of SMAD2 is S-palmitoylation independent. (A) C-terminal phosphorylation (Ser465/Ser467) levels of Flag-SMAD2 (p-SMAD2(C2)) in HEK293T cells expressing HA-tagged mouse DHHC1-23. SMAD2 was pulled down with Flag beads and subjected to western blot analyses. (B) HEK293T cells were transfected with HA-tagged DHHC7 and Flag-SMAD2 WT and C41/81S mutant plasmid and treated with Alk14. The S-palmitoylation level of immunoprecipitated SMAD2 was visualized by in-gel fluorescence and the p-SMAD2(C2) level was detected by western blot analyses. […] The S-palmitoylation level of immunoprecipitated SMAD2 was visualized by in-gel fluorescence. […] The cells were labeled with Alk14 and the S-palmitoylation of SMAD2 was determined by in-gel fluorescence. […] The cells were labeled with Alk14 and the S-palmitoylation of SMAD2 was determined by in-gel fluorescence and the p-SMAD2(C2) level was detected by western blot analyses. […]
Cells were treated with 50 μM palmitic acid analogue Alkyne 14 (Alk14) for 5 h and the collected and lysed in 1% NP-40 lysis buffer (25 mM Tris-HCl pH 8.0, 150 mM NaCl, 10% glycerol, 1% Nonidet P-40) with protease inhibitor cocktail. […] The protein concentration was determined by Bradford assay (23200, Thermo Fisher). […]

COc1ccc(N2CCN(C(=O)c3cc4c(s3)-c3ccccc3S(=O)(=O)C4)CC2)cc1 [ML349]
expression of STAT3 target genes (RORC and CCND1) [1]: significantly decreased
SMAD2 S-palmitoylation signal [2]: significantly enhanced
